Consider 25 compounds from EP4768480A1, “ALKOXY THIOPHENE ACYL ARYLAMINE COMPOUNDS AND USE THEREOF” (priority 2024, dated 2025).

The subject of assay [1] is dry eye mice. In words: Ocular surface sodium fluorescein staining in dry eye mice. The assay is classed as in vivo, male C57BL/6 experimental mice. The following applies: for corneal fluorescein sodium staining scores compared to cyclosporine eyedrops: 0.04% compound, comparison with cyclosporine eyedrops; for corneal fluorescein sodium staining scores compared to cyclosporine eyedrops / corneal fluorescein sodium staining scores: 5 µl per eye, twice daily, one week; for corneal fluorescein sodium staining scores: ocular surface, 0.04% compound or commercial cyclosporine eyedrops, versus carrier group; for area of corneal damage (sodium fluorescein staining photograph): compared to the carrier group, Figure 2. On the procedure: (§1) Experimental animals: male C57BL/6 experimental mice aged 6-8 weeks.
(§2) Experimental reagents and consumables: phenol red cotton line, 1% sodium fluorescein solution, ? 0.05% cyclosporin eyedrops (II) from Xingqi Eyedrops Company, 0.
(§3) At the end of 2 weeks, the dry eye mice were randomly divided into four groups, with 7 mice in each group.
(§4) Each eye of every mouse received 5 µl of […] through ocular surface administration, twice daily. Another group of 7 male C57BL/6 experimental mice aged 6-8 weeks was kept in a thermostatic blast drying oven with controlled environmental humidity of 50% and temperature of 25°C, and received an empty carrier as a physiological control in the third week.
(§5) All mice were evaluated for ocular surface damage recovery by ocular surface fluorescein sodium staining scores on the third weekend, and the tear secretion of mice was measured with phenol red surface lines. To be more specific, the phenol red surface line was placed in the conjunctival sac of a mouse in the anesthesia state for 30 seconds, and then the discoloration length of the phenol red surface line was measured. 2 µl of 1% sodium fluorescein solution was then administered through ocular surface, and photographs were taken under a cobalt blue lamp for scoring and statistics.

Assay [2] relates to dry eye mice. The experiment in a line: Tear secretion by phenol red cotton thread in dry eye mice. In kind it is in vivo, male C57BL/6 experimental mice. The following applies: thread 30 seconds in conjunctival sac, compared to the vehicle group, Figure 3. Here is the method:
as §1, §2, §3, §4, §5

The target of assay [3] is Aβ (Homo sapiens, UniProt P05067). To be noted: literature value, Deepak et al., 2020; read-out: inhibiting the aggregation of Aβ, EC50; cited from earlier work.
For assay [4], the target named is T1, SMS2 (Homo sapiens, UniProt Q8NHU3).
T1 construct: CAO, Yu research team, National Protein Scientific Center (Shanghai); supplied by an outside laboratory, not a commercial vendor
T1 sequence (Q8NHU3 1-365): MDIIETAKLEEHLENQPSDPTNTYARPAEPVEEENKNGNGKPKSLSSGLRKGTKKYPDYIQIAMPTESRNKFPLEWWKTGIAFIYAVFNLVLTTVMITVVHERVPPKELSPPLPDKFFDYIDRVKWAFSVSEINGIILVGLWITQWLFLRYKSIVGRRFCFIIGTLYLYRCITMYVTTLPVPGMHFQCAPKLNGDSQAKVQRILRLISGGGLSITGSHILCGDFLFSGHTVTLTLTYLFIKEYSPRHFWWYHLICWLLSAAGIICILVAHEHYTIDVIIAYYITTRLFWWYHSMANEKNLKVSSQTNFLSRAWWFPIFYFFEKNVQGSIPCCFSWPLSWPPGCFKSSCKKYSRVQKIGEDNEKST
The experiment in a line: SMS2 inhibitory activity in vitro, HPLC fluorescence quantitative detection (C6-NBD-ceramide to C6-NBD-SM). In kind it is biochemical. To be noted: SMS2 pure enzyme; for inhibition at 10 µM: 10 µM test compound, read-out: Inhibition rate on SMS2 at C/µM 10; for inhibition at 10 µM / inhibition at 1 µM: 37°C, 30 minutes, average of two measurements; for inhibition at 1 µM: 1 µM test compound, read-out: Inhibition rate on SMS2 at C/µM 1. The source says:
• 1. Electro-thermostatic water bath, from Shanghai Yiheng Technology Co., Ltd.); • 2. Vortex Mixer, with model ID of XW-80A, from Shanghai Jingke Industrial Co., Ltd.; • 3. […] High Performance Liquid Chromatography Agilent 1100, equipped with a quaternary pump, vacuum degassing, and FLD fluorescence detector, from Agilent Technologies, Palo Alto, CA, USA; • 5. HPLC column COSMOSIL 5C18-MS-II (4.6mm I.D. X 250mm); • 6. […] The organic solvents used in the present disclosure were purchased from Shanghai National Reagent Company, wherein methanol was pure chromatography; water was ultra-pure water which is filtrated by Milli-Q pump, deionized and ultra-filtrated with 0.22 µm membrane; and other biological consumables were purchased from domestic companies; • 8. Preparation of test compound solutions: each test compound was accurately weighed and dissolved in an appropriate volume of DMSO to prepare a 10 mmol/L stock solution. The stock solution was then diluted with an appropriate volume of DMSO to achieve the desired working concentration; • 9. SMS2 pure enzyme, DDM solution and buffer solution were provided by CAO, Yu research team from National Protein Scientific Center (Shanghai).
79 µl of the diluted enzyme solution were transferred into a 1.5 mL EP tube, 1 µl of inhibitor DMSO solution were added thereto, vortexing for 15 seconds, followed by standing at room temperature for 5 minutes. 20 µl of a mixed solution of DMPC and C6-NBD-ceramide were added, vortexing for 15 seconds, and incubated at 37°C for 30 minutes. 200 µl of anhydrous ethanol were added to quench the reaction, vortexing for 15 seconds. 200 µl of the reaction solution were taken out and stored at 4°C and avoided light for HPLC detection.
The peak area values of A(sm) and A(ceramide) in the HPLC chromatogram corresponding to C6-NBD-SM and C6-NBD-Ceramide in the DMSO group and inhibitor group samples were analyzed and recorded, and the inhibition rate of the test compound was calculated according to the following formula. Inhibition rate = (Peak area values of DMSO group−Peak area values of Inhibitor group)/(Peak area values of DMSO group) × 100% [formula]

Chain of Aβ (P05067 672-713 limits assumed): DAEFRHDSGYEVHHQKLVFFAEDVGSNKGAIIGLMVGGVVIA

Take `CCCCCCCCOc1ccccc1COc1ccsc1C(=O)Nc1cccnc1` [1-31, 3-(2-(octyloxy)benzyloxy)-N-(pyridin-3-yl)thiophene-2-carboxamide]: in assay [1], the “corneal fluorescein sodium staining scores compared to cyclosporine eyedrops” value is on record as “statistically significant advantages”, the “corneal fluorescein sodium staining scores” value is “reduction in corneal fluorescein sodium staining scores” and the “area of corneal damage (sodium fluorescein staining photograph)” value was “can reduce the area of corneal damage”. For the same compound, the “tear secretion (discoloration length of phenol red cotton thread)” value in assay [2] was “exhibited an increasing trend compared to the vehicle group”.

In the case of `O=C(Nc1cccnc1)c1sccc1OCc1cc(F)ccc1Cl` [1-2, 3-(2-chloro-5-fluorobenzyloxy)-N-(pyridin-3-yl)thiophene-2-carboxamide], in assay [1], the “corneal fluorescein sodium staining scores compared to cyclosporine eyedrops” value was “statistically significant advantages”, the “corneal fluorescein sodium staining scores” value was “reduction in corneal fluorescein sodium staining scores” and the “area of corneal damage (sodium fluorescein staining photograph)” value was “can reduce the area of corneal damage”. Also, the “tear secretion (discoloration length of phenol red cotton thread)” value in assay [2] is given as “exhibited an increasing trend compared to the vehicle group”.

Broadly, the EC50 is the midpoint of the concentration-response curve. Take `CC(C)=CCC/C(C)=C/CC[C@@]1(C)C=Cc2c(cc(C)c(C(=O)O)c2O)O1` [Daurichromonic acid]: in assay [3], the EC50 is 57 µM.

With `O=C(Nc1cccnc1)c1ccncc1OCc1ccccc1` [12-17, 3-benzyloxy-N-(pyridin-3-yl)pyridin-4-carboxamide], the inhibition at 10 µM in assay [4] stood at 27%.

As to `O=C(Nc1cccnc1)c1sccc1OCc1ccc2ccccc2c1` [1-11, 3-(naphthalen-2-ylmethoxy)-N-(pyridin-3-yl)thiophene-2-carboxamide], in assay [4], the inhibition at 10 µM was determined as 50%.

As for `O=C(Nc1cccnc1)c1sccc1OCc1cc(O)ccc1Cl` [1-24, 3-(2-chloro-5-hydroxybenzyloxy)-N-(pyridin-3-yl)thiophene-2-carboxamide], the inhibition at 1 µM in assay [4] stood at 78%.

Regarding `COc1ccc(COc2ccsc2C(=O)Nc2cccnc2)cc1` [1-56, 3-(4-methoxybenzyloxy)-N-(pyridin-3-yl)thiophene-2-carboxamide], the inhibition at 10 µM in assay [4] was 50%.

For `O=C(Nc1ccc(F)nc1)c1sccc1OCc1ccccc1` [12-13], the inhibition at 1 µM in assay [4] worked out at 9%.

Regarding `O=C(Nc1cccnc1)c1sccc1OCc1ccccc1OCCCCCCCl` [1-76, 3-(2-(6-chlorohexyloxy)benzyloxy)-N-(pyridin-3-yl)thiophene-2-carboxamide], in assay [4], the inhibition at 1 µM was 93%.

Take `O=C(Nc1cccnc1)c1sccc1OCc1csc2ccccc12` [1-66, 3-(benzo[b]thiophen-3-ylmethoxy)-N-(pyridin-3-yl)thiophene-2-carboxamide]: in assay [4], the inhibition at 1 µM was 86%.

As for `O=C(Nc1cc(Cl)cc(Cl)n1)c1sccc1OCc1ccccc1` [1-20, 3-benzyloxy-N-(4,6-Dichloropyridin-2-yl)thiophene-2-carboxamide], the inhibition at 1 µM in assay [4] turned out to be 50%.

For the compound `CCCCCCOc1c(Cl)cccc1COc1ccsc1C(=O)Nc1cccnc1` [1-80, 3-(3-chloro-2-(hexyloxy)benzyloxy)-N-(pyridin-3-yl)thiophene-2-carboxamide], the inhibition at 1 µM in assay [4] amounted to 97%.

On to `O=C(Nc1cncc(F)c1)c1sccc1OCc1ccccc1` [1-92, 3-benzyloxy-N-(5-fluoropyridin-3-yl)thiophene-2-carboxamide], for which the inhibition at 1 µM in assay [4] was 50%.

As to `O=C(Nc1nncs1)c1sccc1OCc1ccccc1` [12-3, 3-benzyloxy-N-(1,3,4-thiadiazol-2-yl)thiophene-2-carboxamide], in assay [4], the inhibition at 1 µM is -8%.

For `Cc1ccc(NC(=O)c2sccc2OCc2ccccc2)cn1` [12-12], the inhibition at 1 µM in assay [4] came out at 7%.

Take `O=C(Nc1ccc(C(F)(F)F)nc1)c1sccc1OCc1ccccc1` [12-14]: the inhibition at 10 µM in assay [4] stood at 10%.

`O=C(Nc1cccnc1)c1sccc1OCc1ccc(F)cc1` [1-46, 3-(4-fluorobenzyloxy)-N-(pyridin-3-yl)thiophene-2-carboxamide]: in assay [4], the inhibition at 10 µM was 70%.

For the compound `O=C(Nc1cccnc1)c1sccc1OCc1ccccc1[N+](=O)[O-]` [1-21, 3-(2-nitrobenzyloxy)-N-(pyridin-3-yl)thiophene-2-carboxamide], in assay [4], the inhibition at 10 µM was found to be 93%.

For the compound `CCCCCCCCOc1ccsc1C(=O)Nc1cccnc1` [1-96, 3-octyloxy-N-(pyridin-3-yl)thiophene-2-carboxamide], the inhibition at 10 µM in assay [4] was 50%.

A word on the IC50: it is the concentration that gives 50% inhibition. A lower IC50 goes with greater potency in that assay. Turning to `CCc1ccccc1COc1ccccc1C(=O)Nc1cccnc1` [12-1 (LY93), 2-(2-ethylbenzyloxy)-N-(pyridin-3-yl)benzamide, reference compound], in assay [4], the inhibition at 1 µM was 66% and inhibition was half-maximal at 0.285 µM (IC50).

Take `O=C(Nc1cncs1)c1sccc1OCc1ccccc1` [1-65, 3-benzyloxy-N-(thiazol-5-yl)thiophene-2-carboxamide]: the inhibition at 10 µM in assay [4] was 61%.

For `CC(C)Oc1ccccc1COc1ccsc1C(=O)Nc1cccnc1` [1-82, 3-(2-isopropoxybenzyloxy)-N-(pyridin-3-yl)thiophene-2-carboxamide], the inhibition at 1 µM in assay [4] turned out to be 80%.

Turning to `COC(=O)c1ccccc1COc1ccsc1C(=O)Nc1cccnc1` [1-22, 2-[(2-(pyridin-3-ylcarbamoyl)thiophene-3-yl)oxymethyl]methyl benzoate], in assay [4], the inhibition at 10 µM was 81%.

`O=C(Nc1cc(Cl)ccn1)c1sccc1OCc1ccccc1` [1-6, 3-benzyloxy-N-(4-chloropyridin-2-yl)thiophene-2-carboxamide]: the inhibition at 10 µM in assay [4] was found to be 50%.

For `O=C(Nc1cccnc1)c1sccc1OCc1ccccc1N1C(=O)c2ccccc2C1=O` [12-5, 3-(2-(1,3-dioxoisoindolin-2-yl)benzyloxy)-N-(pyridin-3-yl)thiophene-2-carboxamide], the inhibition at 10 µM in assay [4] is 4%.
